According to PubChem BioAssay (NCI):
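Method: 48-hour compound exposure of cells in 96-well plates, five concentrations, linear interpolation of endpoints. GI50 is the concentration that inhibits growth by half. At the TGI there is no net growth.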 Where a SMILES comes first, the peptide text is derived from it. [ ]: non-standard residue; d: D form.

How the values were obtained:
Test in all cases: inhibition of tumour cell growth, NCI panel, 48 h
[1] = system: K-562 leukemia
[2] = system: UO-31 renal
[3] = system: MOLT-4 leukemia
[4] = system: HOP-62 NSCLC
[5] = system: A498 renal
[6] = system: SK-MEL-2 melanoma
[7] = system: SK-OV-3 ovarian
[8] = system: SK-MEL-28 melanoma
[9] = system: SNB-75 CNS
[10] = system: 786-0 renal

Compound | GI50 [1] | TGI [1] | GI50 [2] | TGI [2] | GI50 [3] | TGI [3] | GI50 [4] | TGI [4] | GI50 [5] | TGI [5] | GI50 [6] | GI50 [7] | TGI [7] | GI50 [8] | TGI [8] | GI50 [9] | TGI [9] | GI50 [10] | TGI [10] | TGI [6]
O=C(/C=C/c1ccc(Cl)cc1Cl)c1ccc(Cl)cc1Cl | 10.4 µM | 31.4 µM | 15 µM | > 44.8 µM | 6.11 µM | 14.9 µM | 26.1 µM | > 68.9 µM | 20.7 µM | 48.5 µM | 1.63 µM | 37.8 µM | > 100 µM | 27.2 µM | > 74.4 µM | 40.5 µM | > 100 µM | 22 µM | 61.8 µM | 
O=C1C(OC(=O)c2ccccc2)=C(c2ccc(O)cc2)C(=O)C(OC(=O)c2ccccc2)=C1c1ccc(O)cc1 |  | > 100 µM |  | > 100 µM |  | > 100 µM |  |  |  | > 100 µM |  |  | > 100 µM |  | > 100 µM |  | > 100 µM |  | > 100 µM | > 100 µM
CC(=O)[O][Hg][c]1s[c]([Hg][O]C(C)=O)[c]([Hg][O]C(C)=O)[c]1[Hg][O]C(C)=O | 1.3 µM | 18.8 µM | 4.61 µM |  | 2.26 µM | 17.5 µM | 4.91 µM | 16.5 µM | 20.1 µM | 35.1 µM | 2.19 µM | 2.34 µM | 9.2 µM | 1.18 µM | 5.52 µM | 4.91 µM | 25.4 µM | 2.48 µM | 41.8 µM | 
COC(=O)C(C)Oc1ccc(O)cc1 (configuration not stated) |  | > 100 µM |  | > 100 µM |  |  |  | > 100 µM |  | > 100 µM |  |  | > 100 µM |  | 62 µM |  | > 100 µM |  | > 100 µM | 
COc1ccc(F)cc1-c1ccnc2[nH]c(C3=CCN(C4CCC(CC(=O)O)CC4)CC3)cc12 (configuration not stated) | 0.316 µM | > 100 µM | 0.205 µM | 0.625 µM | 0.218 µM | > 100 µM | 0.362 µM | > 100 µM | 0.21 µM | 0.543 µM |  | 1.2 µM | > 100 µM | 0.152 µM | 0.989 µM | 0.13 µM | 0.381 µM | 0.219 µM | 37.3 µM | 
O=C(N/C(=C\c1ccc(F)cc1)c1nc2ccccc2[nH]1)c1ccccc1 |  | > 100 µM |  | > 100 µM |  | > 100 µM |  |  |  | > 100 µM |  |  | > 100 µM |  | > 100 µM |  | > 100 µM |  | > 100 µM | > 100 µM
CCCC(=O)OC(OC(=O)CCC)c1ccc([N+](=O)[O-])o1 |  | > 100 µM |  | 56.7 µM |  | 98.4 µM |  | > 100 µM |  | > 100 µM |  |  | > 100 µM |  | 46.9 µM |  | > 100 µM |  | 36.5 µM | 86.2 µM
CN(C)CCOc1ccc2c(c1)C(=O)/C(=C\c1ncc([N+](=O)[O-])n1C)C2 | 0.295 µM |  | 0.9 µM | 3.68 µM | 0.358 µM | 1.65 µM | 1.59 µM | 4.34 µM | 0.307 µM | 0.931 µM | 0.631 µM | 0.923 µM | 3.21 µM | 0.922 µM | 2.79 µM | 0.474 µM | 1.98 µM | 0.857 µM | 3.39 µM | 1.93 µM
C=CCO[C@H]1CC[C@@]2(C)C(CC[C@]3(C)C2CC=C2[C@@H]4[C@@H](C)C(C)CC[C@]4(C(=O)O)CCC23C)C1(C)C (some centres not stated) |  | 28.6 µM |  | 31.2 µM |  |  |  | 41 µM |  | 32.4 µM |  |  | 31.7 µM |  | 29.5 µM |  | 30.2 µM |  | 30.6 µM | 
COC(=O)C(=O)C(C#N)c1c(Cl)cccc1Cl (configuration not stated) |  | > 100 µM |  | > 100 µM |  | > 100 µM |  | > 100 µM |  | > 100 µM |  |  | > 100 µM |  | > 100 µM |  | > 100 µM |  | > 100 µM | > 100 µM
CN(C)C(=S)/N=c1\ss/c(=N\S(=O)(=O)c2ccccc2)n1C |  | > 100 µM |  | > 100 µM |  | > 100 µM |  | > 100 µM |  | > 100 µM |  |  | > 100 µM |  | > 100 µM |  | > 100 µM |  | > 100 µM | > 100 µM
CSCC[C@H](NC(=O)[C@@H](N)CC(N)=O)C(=O)N[C@@H](Cc1c[nH]c2ccccc12)C(=O)N[C@@H](CCC(N)=O)C(=O)N[C@@H](CCC(=O)O)C(=O)N[C@H](C(=O)NCC(=O)N[C@@H](CCCCN)C(=O)N[C@H](C)C(=O)O)C(C)C (H-NMWQEVGK[dA]-OH) |  | > 100 µM |  |  |  | > 100 µM |  | > 100 µM |  | > 100 µM |  |  | > 100 µM |  | > 100 µM |  | > 100 µM |  | > 100 µM | 
c1ccc(-c2cc3n4c(-c5ccccc5)nn(-c5ccccc5)c4cnc-3n2)cc1 | > 50 µM | > 50 µM | > 50 µM | > 50 µM | > 50 µM | > 50 µM | 13.2 µM | > 50 µM | 12.1 µM | > 50 µM | > 50 µM | 11.8 µM | > 50 µM |  |  | 5.39 µM | 17.8 µM | 19.8 µM | > 50 µM | > 50 µM
C=C1C(=O)OC2(C)CCC1CC1OC1(C)CCC=C(C)CCC2O (configuration not stated) |  | > 100 µM |  | > 100 µM |  | > 100 µM |  |  |  | > 100 µM |  |  | > 100 µM |  | > 100 µM |  | > 100 µM |  | > 100 µM | > 100 µM
CC(=O)/C(=C/N1CCN(C(=O)c2ccco2)C1=S)C(=O)c1ccccc1 | 6.66 µM | 41.6 µM | 8.8 µM | 18.1 µM | 15.9 µM | > 50 µM | 11.7 µM | 27.7 µM |  |  |  | 17.5 µM | > 50 µM | 28 µM | > 50 µM | 10.9 µM | 35.9 µM | 11.2 µM | 25.1 µM | 
Cc1nc(-n2nc(-c3ccccc3)cc2-c2ccccc2)sc1C(=O)CC(=O)C(=O)Nc1ccc(O)cc1 |  | > 100 µM |  | > 100 µM |  | > 100 µM |  | > 100 µM |  | > 100 µM |  |  | > 100 µM |  |  |  | > 100 µM |  | > 100 µM | > 100 µM
CCCCOP1(=O)CC(C)=C(Cl)C(C)(OC)C1 (configuration not stated) |  | > 100 µM |  | > 100 µM |  | > 100 µM |  | > 100 µM |  |  |  |  | > 100 µM |  | > 100 µM |  | > 100 µM |  | > 100 µM | > 100 µM
